In patent US9718828B2 (MERCK SHARP & DOHME CORP., priority 2011, dated 2017):
pEC50: −log10 of the molar value. Structures can show the parent of a compound that is named as a salt. Where two headings read alike, the source gives them in different places.

Target: Btk enzyme (His-Btk) (Homo sapiens (Human), UniProt Q06187)
Experiment: Btk enzyme activity, IMAP fluorescence polarization assay (Assay Method A)
[1] = read-out: EC50 Btk activity values - Assay Method A, IMAP-FP, 60 min pre-incubation, 5 μM ATP, class 100-1000 is given as ≧100 nM-<1 μM

Chain of Btk enzyme (His-Btk) (Q06187 whole entry): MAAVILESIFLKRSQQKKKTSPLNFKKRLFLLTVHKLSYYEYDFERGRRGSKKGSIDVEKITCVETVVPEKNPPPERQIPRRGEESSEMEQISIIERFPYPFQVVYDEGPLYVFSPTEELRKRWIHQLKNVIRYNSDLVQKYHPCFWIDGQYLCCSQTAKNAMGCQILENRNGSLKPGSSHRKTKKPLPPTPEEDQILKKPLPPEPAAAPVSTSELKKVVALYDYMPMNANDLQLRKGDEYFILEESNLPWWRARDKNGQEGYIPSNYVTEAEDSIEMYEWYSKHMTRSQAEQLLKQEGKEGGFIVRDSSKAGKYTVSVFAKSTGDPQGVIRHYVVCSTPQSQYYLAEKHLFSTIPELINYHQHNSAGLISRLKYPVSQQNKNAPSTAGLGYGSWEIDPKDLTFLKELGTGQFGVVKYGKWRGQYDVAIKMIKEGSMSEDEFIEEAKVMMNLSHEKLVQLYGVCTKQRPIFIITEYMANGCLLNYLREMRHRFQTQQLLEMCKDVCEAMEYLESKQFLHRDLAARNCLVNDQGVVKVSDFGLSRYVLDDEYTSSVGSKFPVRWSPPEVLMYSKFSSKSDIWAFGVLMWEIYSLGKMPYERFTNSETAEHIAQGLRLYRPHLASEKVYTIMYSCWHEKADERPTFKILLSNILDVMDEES

pEC50 [1]	pEC50	SMILES
	> 8.00	CC1(C(=O)N2CCC[C@@H](c3nc(-c4ccc(C(=O)Nc5cc(C(F)(F)F)ccn5)cc4)c4c(N)ncnn34)C2)CCC1 [Example 254, (R)-4-(4-amino-7-(1-(1-methylcyclobutanecarbonyl)piperidin-3-yl)imidazo[1,5-f][1,2,4]triazin-5-yl)-N-(4-(trifluoromethyl)pyridin-2-yl)benzamide]
> 8.00		CCNC(=O)N1CCC[C@@H](c2nc(-c3ccc(C(=O)Nc4cc(C(F)(F)F)ccn4)cc3)c3c(N)ncnn23)C1 [Example 256, (R)-3-(4-amino-5-(4-(4-(trifluoromethyl)pyridin-2-ylcarbamoyl)phenyl)imidazo[1,5-f][1,2,4]triazin-7-yl)-N-ethylpiperidine-1-carboxamide]
> 8.00		CC1(C(=O)N2CCC[C@@H](c3nc(-c4ccc(C(=O)Nc5cc(C(F)(F)F)ccn5)cc4)c4c(N)ncnn34)C2)COC1 [Example 261, (R)-4-(4-amino-7-(1-(3-methyloxetane-3-carbonyl)piperidin-3-yl)imidazo[1,5-f][1,2,4]triazin-5-yl)-N-(4-(trifluoromethyl)pyridin-2-yl)benzamide]
	> 8.00	Nc1ncnc2c1c(-c1ccc(C(=O)Nc3cc(C(F)(F)F)ccn3)cc1)nn2[C@@H]1CCCN(C(=O)[C@H]2CCCO2)C1 [Example 262, 4-(4-amino-1-((R)-1-((R)-tetrahydrofuran-2-carbonyl)piperidin-3-yl)-1H-pyrazolo[3,4-d]pyrimidin-3-yl)-N-(4-(trifluoromethyl)pyridin-2-yl)benzamide]
	7.00 to 8.00	CC(C)(C#N)C(=O)N1CCC[C@@H](n2nc(-c3ccc(C(=O)Nc4cc(C(F)(F)F)ccn4)cc3)c3c(N)ncnc32)C1 [Example 263, (R)-4-(4-amino-1-(1-(2-cyano-2-methylpropanoyl)piperidin-3-yl)-1H-pyrazolo[3,4-d]pyrimidin-3-yl)-N-(4-(trifluoromethyl)pyridin-2-yl)benzamide]
> 8.00		COCCOCCOCCOCCC(=O)N1CCC[C@@H](n2nc(-c3ccc(C(=O)Nc4cc(C(F)(F)F)ccn4)cc3)c3c(N)ncnc32)C1 [Example 264, (R)-4-(1-(1-2,5,8,11-tetraoxatetradecanepiperidin-3-yl)-4-amino-1H-pyrazolo[3,4-d]pyrimidin-3-yl)-N-(4-(trifluoromethyl)pyridin-2-yl)benzamide]
	7.00 to 8.00	Nc1ncnc2c1c(-c1ccc(C(=O)Nc3cc(C(F)(F)F)ccn3)cc1)nn2[C@@H]1CCCN(C(=O)C(Cl)(Cl)Cl)C1 [Example 265, (R)-4-(4-amino-1-(1-(2,2,2-trichloroacetyl)piperidin-3-yl)-1H-pyrazolo[3,4-d]pyrimidin-3-yl)-N-(4-(trifluoromethyl)pyridin-2-yl)benzamide]
> 8.00		CC1(C(=O)N2CCC[C@@H](n3nc(-c4ccc(C(=O)Nc5cc(C(F)(F)F)ccn5)cc4)c4c(N)ncnc43)C2)CCC1 [Example 266, (R)-4-(4-amino-1-(1-(1-methylcyclobutanecarbonyl)piperidin-3-yl)-1H-pyrazolo[3,4-d]pyrimidin-3-yl)-N-(4-(trifluoromethyl)pyridin-2-yl)benzamide]

Further lines, the molecule ahead of its results:

SMILES	pEC50 [1]	pEC50
CCN(CC)C(=O)C1CCCN(c2nc(-c3ccc(C(=O)Nc4cc(C5CC5)ccn4)cc3)c3c(N)nccn23)C1 (centres unmarked) [Example 246, 1-(8-amino-1-(4-(4-cyclopropylpyridin-2-ylcarbamoyl)phenyl)imidazo[1,5-a]pyrazin-3-yl)-N,N-diethylpiperidine-3-carboxamide, TFA salt]	> 8.00	
Nc1nccn2c(N3CCCC(C(=O)N4CCCC4)C3)nc(-c3ccc(C(=O)Nc4cc(C5CC5)ccn4)cc3)c12 (centres unmarked) [Example 247, 4-(8-amino-3-(3-(pyrrolidine-1-carbonyl)piperidin-1-yl)imidazo[1,5-a]pyrazin-1-yl)-N-(4-cyclopropylpyridin-2-yl)benzamide, TFA salt]	> 8.00	
Nc1nccn2c(C3CCc4[nH]nc(C5CC5)c4C3)nc(-c3ccc(C(=O)Nc4cc(C(F)(F)F)ccn4)cc3)c12 (centres unmarked) [Example 248, 4-(8-amino-3-(3-cyclopropyl-4,5,6,7-tetrahydro-1H-indazol-5-yl)imidazo[1,5-a]pyrazin-1-yl)-N-(4-(trifluoromethyl)pyridin-2-yl)benzamide]		> 8.00
N#Cc1ccnc(NC(=O)c2ccc(-c3nc(C4CCc5[nH]nc(C6CC6)c5C4)n4ccnc(N)c34)cc2)c1 (centres unmarked) [Example 249, 4-(8-amino-3-(3-cyclopropyl-4,5,6,7-tetrahydro-1H-indazol-5-yl)imidazo[1,5-a]pyrazin-1-yl)-N-(4-cyanopyridin-2-yl)benzamide, TFA salt]	> 8.00	
COCc1n[nH]c2c1CC(c1nc(-c3ccc(C(=O)Nc4cc(C(F)(F)F)ccn4)cc3)c3c(N)nccn13)CC2 (centres unmarked) [Example 250, 4-(8-amino-3-(3-(methoxymethyl)-4,5,6,7-tetrahydro-1H-indazol-5-yl)imidazo[1,5-a]pyrazin-1-yl)-N-(4-(trifluoromethyl)pyridin-2-yl)benzamide]		7.00 to 8.00
CCOC(=O)N1CCCC(c2cc(-c3ccc(C(=O)Nc4cc(C(F)(F)F)ccn4)cc3)c3c(N)ncnn23)C1 (centres unmarked) [Example 251, ethyl 3-(4-amino-5-(4-(4-(trifluoromethyl)pyridin-2-ylcarbamoyl)phenyl)pyrrolo[1,2-f][1,2,4]triazin-7-yl)piperidine-1-carboxylate]		> 8.00
CCNC(=O)N1CCCC(c2cc(-c3ccc(C(=O)Nc4cc(C(F)(F)F)ccn4)cc3)c3c(N)ncnn23)C1 (centres unmarked) [Example 252, 3-(4-amino-5-(4-(4-(trifluoromethyl)pyridin-2-ylcarbamoyl)phenyl)pyrrolo[1,2-f][1,2,4]triazin-7-yl)-N-ethylpiperidine-1-carboxamide]	> 8.00	
CCOC(=O)N1CCC[C@@H](c2nc(-c3ccc(C(=O)Nc4cc(C(F)(F)F)ccn4)cc3)c3c(N)ncnn23)C1 [Example 255, (R)-ethyl 3-(4-amino-5-(4-(4-(trifluoromethyl)pyridin-2-ylcarbamoyl)phenyl)imidazo[1,5-f][1,2,4]triazin-7-yl)piperidine-1-carboxylate]	> 8.00	
CC(C)(F)C(=O)N1CCC[C@@H](c2nc(-c3ccc(C(=O)Nc4cc(C(F)(F)F)ccn4)cc3)c3c(N)ncnn23)C1 [Example 257, (R)-4-(4-amino-7-(1-(2-fluoro-2-methylpropanoyl)piperidin-3-yl)imidazo[1,5-f][1,2,4]triazin-5-yl)-N-(4-(trifluoromethyl)pyridin-2-yl)benzamide]	> 8.00	
Nc1ncnn2c([C@@H]3CCCNC3)nc(-c3ccc(C(=O)Nc4cc(C(F)(F)F)ccn4)cc3)c12 [Example 258, (R)-4-(4-amino-7-(piperidin-3-yl)imidazo[1,5-f][1,2,4]triazin-5-yl)-N-(4-(trifluoromethyl)pyridin-2-yl)benzamide]		7.00 to 8.00
CCOCCC(=O)N1CCC[C@@H](c2nc(-c3ccc(C(=O)Nc4cc(C(F)(F)F)ccn4)cc3)c3c(N)ncnn23)C1 [Example 259, (R)-4-(4-amino-7-(1-(3-ethoxypropanoyl)piperidin-3-yl)imidazo[1,5-f][1,2,4]triazin-5-yl)-N-(4-(trifluoromethyl)pyridin-2-yl)benzamide]	> 8.00	
Nc1ncnn2c([C@@H]3CCCN(C(=O)C4CC(F)(F)C4)C3)nc(-c3ccc(C(=O)Nc4cc(C(F)(F)F)ccn4)cc3)c12 [Example 260, (R)-4-(4-amino-7-(1-(3,3-difluorocyclobutanecarbonyl)piperidin-3-yl)imidazo[1,5-f][1,2,4]triazin-5-yl)-N-(4-(trifluoromethyl)pyridin-2-yl)benzamide]	> 8.00	
